≈ marks a conversion by molar mass, not a printed value. Calls of active or inactive are those of the source. The calls are words filed in the database; no cut-off is given here.
Assays:
Goffeauzyma gastrica [1] = assay: Antifungal activity against Cryptococcus gastricus MTCC 1715 assessed as growth inhibition after 48 hr by broth dilution method; assay type: functional
Candida albicans [2] = assay: Antifungal activity against Candida albicans MTCC 3018 assessed as growth inhibition after 48 hr by broth dilution method; assay type: functional
Saccharomyces cerevisiae [3] = assay: Antifungal activity against Saccharomyces cerevisiae MTCC 172 assessed as growth inhibition after 48 hr by broth dilution method; assay type: functional
Salmonella typhi [4] = assay: Antibacterial activity against Salmonella enterica subsp. enterica serovar Typhi MTCC 1251 assessed as growth inhibition after 24 hr by broth dilution method; assay type: functional, organism-based
Pseudomonas aeruginosa [5] = assay: Antibacterial activity against Pseudomonas aeruginosa MTCC 2642 assessed as growth inhibition after 24 hr by broth dilution method; assay type: functional
Escherichia coli [6] = assay: Antibacterial activity against Escherichia coli MTCC 82 assessed as growth inhibition after 24 hr by broth dilution method; assay type: functional; settings: MTCC 82, 24 h
Staphylococcus aureus [7] = assay: Antibacterial activity against Staphylococcus aureus MTCC 96 assessed as growth inhibition after 24 hr by broth dilution method; assay type: functional; settings: MTCC 96, 24 h
Bacillus subtilis [8] = assay: Antibacterial activity against Bacillus subtilis MTCC 2451 assessed as growth inhibition after 24 hr by broth dilution method; assay type: functional; settings: MTCC 2451, 24 h
Goffeauzyma gastrica [9] = assay: Antifungal activity against Cryptococcus gastricus MTCC 1715 assessed as growth inhibition at 2 mg/mL after 48 hr by disk diffusion method; assay type: functional
Saccharomyces cerevisiae [10] = assay: Antifungal activity against Saccharomyces cerevisiae MTCC 172 assessed as growth inhibition at 2 mg/mL after 48 hr by disk diffusion method; assay type: functional
Salmonella typhi [11] = assay: Antibacterial activity against Salmonella enterica subsp. enterica serovar Typhi MTCC 1251 assessed as growth inhibition at 2 mg/mL after 24 hr by disk diffusion method; assay type: functional, organism-based
Pseudomonas aeruginosa [12] = assay: Antibacterial activity against Pseudomonas aeruginosa MTCC 2642 assessed as growth inhibition at 2 mg/mL after 24 hr by disk diffusion method; assay type: functional
Escherichia coli [13] = assay: Antibacterial activity against Escherichia coli MTCC 82 assessed as growth inhibition at 2 mg/mL after 24 hr by disk diffusion method; assay type: functional
Staphylococcus aureus [14] = assay: Antibacterial activity against Staphylococcus aureus MTCC 96 assessed as growth inhibition at 2 mg/mL after 24 hr by disk diffusion method; assay type: functional
Bacillus subtilis [15] = assay: Antibacterial activity against Bacillus subtilis MTCC 2451 assessed as growth inhibition at 2 mg/mL after 24 hr by disk diffusion method; assay type: functional
Candida albicans [16] = assay: Antifungal activity against Candida albicans MTCC 3018 assessed as growth inhibition at 2 mg/mL after 48 hr by disk diffusion method; assay type: functional
OVCAR-5 = assay: Cytotoxicity against Homo sapiens (human) OVCAR5 cells assessed as growth inhibition at 1 uM after 48 hr by SRB assay; assay type: functional; settings: OVCAR-5, 48 h, read-out: GI
MCF7 [17] = assay: Cytotoxicity against Homo sapiens (human) MCF7 cells assessed as growth inhibition at 1 uM after 48 hr by SRB assay; assay type: functional; settings: MCF7, 48 h, read-out: GI
Salmonella typhi [18] = assay: Antibacterial activity against Salmonella enterica subsp. enterica serovar Typhi MTCC 1251 assessed as growth inhibition at 5 ug/disk after 24 hr by disk diffusion method; assay type: functional; settings: MTCC 1251, 24 h, read-out: DIZ
Pseudomonas aeruginosa [19] = assay: Antibacterial activity against Pseudomonas aeruginosa MTCC 2642 assessed as growth inhibition at 5 ug/disk after 24 hr by disk diffusion method; assay type: functional; settings: MTCC 2642, 24 h, read-out: DIZ
Escherichia coli [20] = assay: Antibacterial activity against Escherichia coli MTCC 82 assessed as growth inhibition at 5 ug/disk after 24 hr by disk diffusion method; assay type: functional; settings: MTCC 82, 24 h, read-out: DIZ
Staphylococcus aureus [21] = assay: Antibacterial activity against Staphylococcus aureus MTCC 96 assessed as growth inhibition at 5 ug/disk after 24 hr by disk diffusion method; assay type: functional; settings: MTCC 96, 24 h, read-out: DIZ
Bacillus subtilis [22] = assay: Antibacterial activity against Bacillus subtilis MTCC 2451 assessed as growth inhibition at 5 ug/disk after 24 hr by disk diffusion method; assay type: functional; settings: MTCC 2451, 24 h, read-out: DIZ
THP-1 = assay: Cytotoxicity against Homo sapiens (human) THP1 cells assessed as growth inhibition at 10 to 100 uM after 48 hr by SRB assay; assay type: functional, cell-based
MCF7 [23] = assay: Cytotoxicity against Homo sapiens (human) MCF7 cells assessed as growth inhibition at 10 to 100 uM after 48 hr by SRB assay; assay type: functional, cell-based

Structure (SMILES): O=Cc1ccc(CO)o1 [AES-103]
- MIC (Goffeauzyma gastrica [1]): inactive
- MIC (Candida albicans [2]): inactive
- MIC (Saccharomyces cerevisiae [3]): inactive
- MIC (Salmonella typhi [4]): inactive
- MIC (Pseudomonas aeruginosa [5]): inactive
- MIC (Escherichia coli [6]): 400 µg/mL (≈ 3170 µM)
- MIC (Staphylococcus aureus [7]): 200 µg/mL (≈ 1590 µM)
- MIC (Bacillus subtilis [8]): 100 µg/mL (≈ 793 µM)
- growth inhibition (GI) (Goffeauzyma gastrica [9]): inactive
- zone of inhibition at 2000 µg/mL (Saccharomyces cerevisiae [10]; MTCC 172, 48 h, read-out: DIZ): 8.1 mm
- growth inhibition (GI) (Salmonella typhi [11]): inactive
- growth inhibition (GI) (Pseudomonas aeruginosa [12]): inactive
- zone of inhibition at 2000 µg/mL (Escherichia coli [13]; MTCC 82, 24 h, read-out: DIZ): 9 mm
- zone of inhibition at 2000 µg/mL (Staphylococcus aureus [14]; MTCC 96, 24 h, read-out: DIZ): 13.1 mm
- zone of inhibition at 2000 µg/mL (Bacillus subtilis [15]; MTCC 2451, 24 h, read-out: DIZ): 11.5 mm
- growth inhibition (GI) (Candida albicans [16]): inactive

Structure (SMILES): CO[C@@]12[C@H](COC(N)=O)C3=C(C(=O)C(C)=C(N)C3=O)N1C[C@@H]1N[C@@H]12 [MITOMYCIN]
- inhibition of growth at 1 µM (OVCAR-5): 71%
- inhibition of growth at 1 µM (MCF7 [17]): 82%

Structure (SMILES): CC1(C)S[C@@H]2[C@H](NC(=O)[C@H](N)c3ccc(O)cc3)C(=O)N2[C@H]1C(=O)O [AMOXICILLIN]
- zone of inhibition at 5 µg/disc (Salmonella typhi [18]): 18 mm
- zone of inhibition at 5 µg/disc (Pseudomonas aeruginosa [19]): 19 mm
- zone of inhibition at 5 µg/disc (Escherichia coli [20]): 20 mm
- zone of inhibition at 5 µg/disc (Staphylococcus aureus [21]): 21 mm
- zone of inhibition at 5 µg/disc (Bacillus subtilis [22]): 20 mm

Structure (SMILES): COC(=O)c1ccc(O)cc1C(=O)OC
- growth inhibition (GI) (THP-1): Active
- growth inhibition (GI) (MCF7 [23]): Active
- growth inhibition (GI) (Goffeauzyma gastrica [9]): inactive
- growth inhibition (GI) (Saccharomyces cerevisiae [10]): inactive
- growth inhibition (GI) (Salmonella typhi [11]): inactive
- growth inhibition (GI) (Pseudomonas aeruginosa [12]): inactive
- growth inhibition (GI) (Escherichia coli [13]): inactive
- growth inhibition (GI) (Staphylococcus aureus [14]): inactive
- growth inhibition (GI) (Bacillus subtilis [15]): inactive
- growth inhibition (GI) (Candida albicans [16]): inactive
